Source: ChEMBL document CHEMBL5370533 (Eur J Med Chem, 2023)
pIC50: −log10 of the molar value.

Columns and labels:
[1] = biological target: T1, Cyclin-dependent kinase 6 (Homo sapiens, UniProt Q00534); assay: Inhibition of human CDK6 assessed as enzyme activity at 0.123 uM pretreated for 20 mins followed by [gamma-33P]-ATP addition and measured after 120 mins in presence of 10 uM ATP by radiometric Hot-SpotSM Kinase assay; design: scale not given: the % may be the effect or the level left; conditions: time 140.0 min
[2] = biological target: T2, Receptor-type tyrosine-protein kinase FLT3 (Homo sapiens, UniProt P36888); assay: Inhibition of human FLT3 using EAIYAAPFAKKK and [gamma-33P]-ATP as substrate pretreated for 20 mins followed by [gamma-33P]-ATP addition and measured after 120 mins in presence of 10 uM ATP by radiometric Hot-SpotSM Kinase assay
T2 sequence (P36888 whole entry): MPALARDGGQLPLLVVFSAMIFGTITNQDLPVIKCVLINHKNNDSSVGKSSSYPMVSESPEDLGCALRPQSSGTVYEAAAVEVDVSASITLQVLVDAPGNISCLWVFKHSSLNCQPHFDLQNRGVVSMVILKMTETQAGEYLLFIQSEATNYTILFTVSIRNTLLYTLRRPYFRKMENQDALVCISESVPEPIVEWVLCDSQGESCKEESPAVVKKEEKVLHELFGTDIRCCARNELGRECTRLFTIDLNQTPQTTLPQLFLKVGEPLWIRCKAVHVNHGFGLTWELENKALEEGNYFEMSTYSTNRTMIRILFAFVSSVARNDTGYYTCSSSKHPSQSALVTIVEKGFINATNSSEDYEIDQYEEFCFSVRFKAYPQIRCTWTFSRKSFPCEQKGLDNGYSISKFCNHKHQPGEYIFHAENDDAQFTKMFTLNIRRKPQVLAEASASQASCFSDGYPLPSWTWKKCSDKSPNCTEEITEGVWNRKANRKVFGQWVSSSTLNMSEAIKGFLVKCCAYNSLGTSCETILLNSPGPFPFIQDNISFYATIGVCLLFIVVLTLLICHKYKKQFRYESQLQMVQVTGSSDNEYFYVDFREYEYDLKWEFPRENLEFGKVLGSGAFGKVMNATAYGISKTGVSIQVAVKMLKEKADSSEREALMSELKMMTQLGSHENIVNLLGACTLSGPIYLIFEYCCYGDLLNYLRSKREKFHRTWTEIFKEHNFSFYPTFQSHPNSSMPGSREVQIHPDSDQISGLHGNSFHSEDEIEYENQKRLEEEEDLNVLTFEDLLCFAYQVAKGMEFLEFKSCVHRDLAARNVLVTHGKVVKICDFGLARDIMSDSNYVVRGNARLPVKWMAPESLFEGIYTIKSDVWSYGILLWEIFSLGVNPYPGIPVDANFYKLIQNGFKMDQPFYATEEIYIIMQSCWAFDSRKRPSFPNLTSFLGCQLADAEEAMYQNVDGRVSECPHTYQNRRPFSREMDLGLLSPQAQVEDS

[3] = biological target: T3, Cyclin-dependent kinase 2 (Homo sapiens, UniProt P24941); assay: Inhibition of human CDK2 assessed as enzyme activity at 0.123 uM pretreated for 20 mins followed by [gamma-33P]-ATP addition and measured after 120 mins in presence of 10 uM ATP by radiometric Hot-SpotSM Kinase assay; design: scale not given: the % may be the effect or the level left; conditions: time 140.0 min
MV4-11 [4] = assay: Antiproliferative activity against human MV4-11 cells harboring FLT3 ITD mutant assessed as inhibition of cell growth incubated for 72 hrs by CellTiter-Glo luminescent assay; format: functional, cell-based; conditions: MV4-11, 72 h
[5] = biological target: T1, Cyclin-dependent kinase 6; assay: Inhibition of human CDK6 pretreated for 20 mins followed by [gamma-33P]-ATP addition and measured after 120 mins in presence of 10 uM ATP by radiometric Hot-SpotSM Kinase assay
[6] = biological target: T3, Cyclin-dependent kinase 2; assay: Inhibition of human CDK2 pretreated for 20 mins followed by [gamma-33P]-ATP addition and measured after 120 mins in presence of 10 uM ATP by radiometric Hot-SpotSM Kinase assay
[7] = Cytotoxicity against mouse BaF3 cells assessed as inhibition of cell growth incubated for 72 hrs; format: toxicity, cell-based
BaF3 [8] = assay: Antiproliferative activity against mouse BaF3 cells harboring FLT3 D835V mutant assessed as inhibition of cell growth incubated for 72 hrs; format: functional, cell-based; conditions: BaF3, 72 h
[9] = biological target: Receptor-type tyrosine-protein kinase FLT3 (Homo sapiens) (UniProt P36888); assay: Inhibition of human FLT3 assessed as enzyme activity using EAIYAAPFAKKK and [gamma-33P]-ATP as substrate at 0.123 uM pretreated for 20 mins followed by [gamma-33P]-ATP addition and measured after 120 mins in presence of 10 uM ATP by radiometric Hot-SpotSM Kinase assay; design: scale not given: the % may be the effect or the level left; conditions: time 140.0 min
MOLM-13 = assay: Antiproliferative activity against human MOLM-13 cells harboring FLT3 ITD mutant assessed as inhibition of cell growth; format: functional, cell-based
U-937 = assay: Antiproliferative activity against human U-937 cells expressing low level wild type FLT3 assessed as inhibition of cell growth; format: functional, cell-based
THP-1 = assay: Antiproliferative activity against human THP-1 cells expressing wild type FLT3 assessed as inhibition of cell growth; format: functional, cell-based
HL-60 = assay: Antiproliferative activity against human HL-60 cells expressing low level wild type FLT3 assessed as inhibition of cell growth; format: functional, cell-based
K562 = assay: Antiproliferative activity against human K562 cells deficit of oncogenic FLT3 assessed as inhibition of cell growth; format: functional, cell-based
BaF3 [10] = assay: cells; format: functional, cell-based; conditions: Mus musculus, BaF3, 72 h
Description: Antiproliferative activity against mouse BaF3 cells harboring FLT3 ITD mutant assessed as inhibition of cell growth incubated for 72 hrs

[11] = Cytotoxicity against human PBMC cells assessed as inhibition of cell growth; format: toxicity, cell-based
BaF3 [12] = assay: cells; format: functional, cell-based; conditions: Mus musculus, BaF3, 72 h; remark: listed apart in the source
Description: Antiproliferative activity against mouse BaF3 cells harboring FLT3 ITD/D835V mutant assessed as inhibition of cell growth incubated for 72 hrs

[13] = Toxicity against nu/nu mouse xenografted with human MV4-11 cells assessed as decrease in body weight at 50 mg/kg, po qd for 2 weeks; format: organism-based; conditions: in vivo, 336 h
BaF3 [14] = assay: cells; format: functional, cell-based; conditions: Mus musculus, BaF3, 72 h; remark: listed apart in the source
Description: Antiproliferative activity against mouse BaF3 cells harboring FLT3 ITD/F691L mutant assessed as inhibition of cell growth incubated for 72 hrs

[15] = Toxicity against nu/nu mouse xenografted with human MV4-11 cells assessed as animal's mortality at 50 mg/kg, po qd for 2 days; format: organism-based; conditions: in vivo, 48 h, time 2 day
MV4-11 [16] = assay: animal or person; format: functional, Homo sapiens; conditions: Mus musculus, MV4-11, 336 h, route po, time 2 weeks
Description: Antitumor activity against human MV4-11 cells xenografted in nu/nu mouse assessed as inhibition of tumor growth at 50 mg/kg, po qd for 2 weeks by vernier caliper analysis

BaF3 [17] = assay: cells; format: functional, cell-based; conditions: Mus musculus, BaF3, 72 h; remark: listed apart in the source
Description: Antiproliferative activity against mouse BaF3 cells harboring FLT3 ITD/N676D mutant assessed as inhibition of cell growth incubated for 72 hrs

T1 sequence (Q00534 whole entry): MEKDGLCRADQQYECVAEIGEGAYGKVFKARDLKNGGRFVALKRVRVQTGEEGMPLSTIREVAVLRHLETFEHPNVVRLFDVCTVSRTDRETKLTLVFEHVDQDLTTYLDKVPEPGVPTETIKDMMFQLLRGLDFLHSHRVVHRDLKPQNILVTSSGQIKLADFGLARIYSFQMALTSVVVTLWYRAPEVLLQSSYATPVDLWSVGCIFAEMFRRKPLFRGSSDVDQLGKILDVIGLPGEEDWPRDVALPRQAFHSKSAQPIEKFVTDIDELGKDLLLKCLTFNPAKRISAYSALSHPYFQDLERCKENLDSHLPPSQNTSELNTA

| SMILES | Activity [1] [%] | pIC50 [2] | Activity [3] [%] | pIC50 (MV4-11 [4]) | other results |
| --- | --- | --- | --- | --- | --- |
| Cc1nc(Nc2c[nH]nc2C(=O)Nc2ccc(N3CCNCC3)cc2)cc(Oc2ccccc2)n1 | 88.8 | 7.95 | 82.3 | – | – |
| O=C(Nc1ccc(CN2CCOCC2)cc1)c1n[nH]cc1Nc1cc(C2CCCC2)ncn1 | 92.6 | 7.53 | 71.4 | 6.68 | – |
| CN1CCN(Cc2ccc(NC(=O)c3n[nH]cc3Nc3ccncn3)cc2)CC1 | – | 8.14 | – | – | pIC50 [5]: 7.84; pIC50 [6]: 7.64 |
| CO[C@@H]1[C@H](N(C)C(=O)c2ccccc2)C[C@H]2O[C@]1(C)n1c3ccccc3c3c4c(c5c6ccccc6n2c5c31)C(=O)NC4 [MIDOSTAURIN] | – | – | – | – | IC50 at 72 h [7]: 320 nM; pIC50 (BaF3 [8]): 8.40 |
| Cc1cnc(Nc2c[nH]nc2C(=O)Nc2ccc(N3CCNCC3)cc2)nc1Oc1ccccc1 | 88.4 | – | 88.6 | – | Activity [9]: 83% |
| CN1CCN(Cc2ccc(NC(=O)c3n[nH]cc3Nc3cc(C4CCCC4)ncn3)cc2)CC1 | 88.9 | 7.71 | 78.8 | 6.70 | – |
| CC(C)(C)c1cc(NC(=O)Nc2ccc(-c3cn4c(n3)sc3cc(OCCN5CCOCC5)ccc34)cc2)no1 [QUIZARTINIB] | – | – | – | 8.28 | IC50 at 72 h [7]: > 10000 nM; pIC50 (MOLM-13): 7.82; pIC50 (U-937): 6.60; pIC50 (THP-1): 6.70; pIC50 (HL-60): 6.11; pIC50 (K562): 6.54; pIC50 (BaF3 [8]): 7.00; pIC50 (BaF3 [10]): 9.00; pIC50 [11]: 5.90; pIC50 (BaF3 [12]): 7.03 |
| CN1CCN(Cc2ccc(NC(=O)c3n[nH]cc3Nc3ncnc4[nH]ccc34)cc2)CC1 | – | – | – | 8.15 | Activity [13]: Toxic; IC50 at 72 h [7]: 155 nM; pIC50 (MOLM-13): 8.27; pIC50 (BaF3 [14]): 7.25; Activity [15]: Toxic; pIC50 (HL-60): 6.11; pIC50 (K562): 6.10; pIC50 (BaF3 [8]): 7.41; pIC50 (BaF3 [10]): 7.42; inhibition in vivo at 50 mg/kg (MV4-11 [16]): 94.6%; pIC50 [11]: 6.90; pIC50 (BaF3 [12]): 8.10; pIC50 (BaF3 [17]): 7.14 |
| O=C(Nc1ccc(N2CCNCC2)cc1)c1n[nH]cc1Nc1cc(-c2ccccc2)ncn1 | 101 | 7.34 | 89.3 | – | – |
| Cc1cc(Oc2ccccc2)nc(Nc2c[nH]nc2C(=O)Nc2ccc(N3CCNCC3)cc2)n1 | 91.5 | – | 78.3 | – | Activity [9]: 71.7% |

Continued, in another order:

| Activity [1] [%] | pIC50 [2] | Activity [3] [%] | pIC50 (MV4-11 [4]) | SMILES | other results |
| --- | --- | --- | --- | --- | --- |
| 87.5 | 7.38 | 83.5 | – | O=C(Nc1ccc(N2CCNCC2)cc1)c1n[nH]cc1Nc1cc(-c2ccoc2)ncn1 | – |
| 94.3 | 7.54 | 84.8 | – | O=C(Nc1ccc(N2CCNCC2)cc1)c1n[nH]cc1Nc1cc(C2CCCCCC2)ncn1 | – |
| 86.3 | 7.81 | 79.3 | 7.00 | O=C(Nc1ccc(N2CCNCC2)cc1)c1n[nH]cc1Nc1cc(C2CCCC2)ncn1 | – |
| 58.1 | 7.54 | 54.6 | – | O=C(Nc1ccc(N2CCNCC2)cc1)c1n[nH]cc1Nc1cc(OC2CCCCCC2)ncn1 | – |
| 86.4 | 7.60 | 76.5 | – | O=C(Nc1ccc(N2CCNCC2)cc1)c1n[nH]cc1Nc1cc(C2=CCOCC2)ncn1 | – |
| 93.3 | 7.23 | 83.3 | – | O=C(Nc1ccc(N2CCOCC2)cc1)c1n[nH]cc1Nc1cc(C2CCCC2)ncn1 | – |
| 51.3 | 7.95 | 51 | 7.05 | O=C(Nc1ccc(N2CCNCC2)cc1)c1n[nH]cc1Nc1cc(OCC2CCCC2)ncn1 | – |
| 58.4 | 7.72 | 53.1 | 6.89 | O=C(Nc1ccc(N2CCNCC2)cc1)c1n[nH]cc1Nc1cc(OC2CCCCC2)ncn1 | – |
| – | 8.11 | – | 6.96 | O=C(Nc1ccc(N2CCNCC2)cc1)c1n[nH]cc1Nc1cc(OC2CCCC2)ncn1 | pIC50 [5]: 6.80; pIC50 [6]: 6.87 |
| 72.9 | 7.67 | 69.5 | 7.00 | O=C(Nc1ccc(N2CCNCC2)cc1)c1n[nH]cc1Nc1cc(NC2CCCC2)ncn1 | – |
| – | 8.07 | – | 7.10 | O=C(Nc1ccc(N2CCNCC2)cc1)c1n[nH]cc1Nc1cc(C2CC2)ncn1 | pIC50 [5]: 6.90; pIC50 [6]: 6.71 |
